Data taken from US9624217B2, “Dihydropyrrolopyridine inhibitors of ROR-gamma” (Vitae Pharmaceuticals, Inc., priority 2014, dated 2017).

molecular target: recombinant RORγ Ligand Binding Domain (LBD) (Homo sapiens (Human), UniProt P51449); assay: Radio-Ligand RORγ Binding Assay (Assay 1); details: SPA competition with 25-hydroxy [26,27-3H]-cholesterol, cell-free; read-out: RORγ Binding Ki Range
Procedure: Radio-Ligand RORγ Binding Assay (Assay 1)
Compounds of the present invention were tested for ability to bind to RORγ in a cell-free competition assay with commercially available radio-ligand (RL), 25-hydroxy [26,27-^3H]-cholesterol (PerkinElmer, Cat. #NET674250UC), for a ligand binding site on a recombinant RORγ Ligand Binding Domain (LBD) protein expressed as a 6×His-Glutathione-S-Transferase (GST) fusion. […] The plate was shaken at 700 rpm for 20 min and incubated for 10 min at rt, after which 40 μL of poly-Lys YSi SPA beads (PerkinElmer, Cat. #RPNQ0010) were added to achieve 50 μg of the beads per well. The plate was incubated on an orbital shaker for 20 min and then for 10 min without agitation at rt. SPA signal for tritium beta radiation was registered on PerkinElmer Microbeta plate reader. […] The percent inhibition vs. concentration data were fit into a four-parameter model, and IC50 values were calculated from the fit as the concentrations corresponding to the inflection points on the dose-response curves.

Chain of recombinant RORγ Ligand Binding Domain (LBD) (P51449 269-508): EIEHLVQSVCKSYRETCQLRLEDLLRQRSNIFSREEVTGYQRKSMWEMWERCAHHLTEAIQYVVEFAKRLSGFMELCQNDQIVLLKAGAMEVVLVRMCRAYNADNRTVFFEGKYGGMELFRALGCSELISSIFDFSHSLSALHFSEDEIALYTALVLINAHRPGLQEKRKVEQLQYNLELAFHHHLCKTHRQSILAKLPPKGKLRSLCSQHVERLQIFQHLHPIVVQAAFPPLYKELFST

Row | SMILES | Ki [nM]
1 | CC(C)[C@H]1c2ncc(C(=O)NCC3CCN(C(=O)CO)CC3)cc2CN1Cc1ccc(C(F)(F)F)cc1 [Compound 113] | 100 to 1000
2 | CC(C)[C@H]1c2ncc(C(=O)NCc3ccncc3)cc2CN1Cc1ccc(C(F)(F)F)cc1 [Compound 115] | 100 to 1000
3 | CC(C)[C@H]1c2ncc(C(=O)NC(CC(=O)O)c3ccc(Br)cc3)cc2CN1Cc1ccc(C(F)(F)F)cc1 (some centres unmarked) [Compound 140] | > 1000
4 | CCS(=O)(=O)N1CC(CNC(=O)c2cnc3c(c2)CN(Cc2ccc(C(F)(F)F)cc2)[C@H]3C(C)C)C1 [Compound 104] | 100 to 1000
5 | COC(=O)c1ccc(CNC(=O)c2cnc3c(c2)CN(Cc2ccc(C(F)(F)F)cc2)[C@H]3C(C)C)cc1 [Compound 65, Methyl (S)-4-((7-isopropyl-6-(4-(trifluoromethyl)benzyl)-6,7-dihydro-5H-pyrrolo[3,4-b]pyridine-3-carboxamido)methyl)benzoate] | 100 to 1000
6 | CC(C)[C@H]1c2ncc(C(=O)NCc3ccc(S(C)(=O)=O)cc3)cc2CN1Cc1ccc(C(F)(F)F)cn1 [Compound 36] | 100 to 1000
7 | CC(C)[C@H]1c2ncc(C(=O)N[C@H](CO)c3ccc(C#N)cc3)cc2CN1Cc1ccc(C(F)(F)F)cc1 [Compound 158] | 100 to 1000
8 | CC(C)[C@H]1c2ncc(C(=O)NCC(O)c3ccc(C(F)(F)F)cc3)cc2CN1Cc1ccc(C(F)(F)F)cc1 (some centres unmarked) [Compound 70] | > 1000
9 | CC(C)[C@H]1c2ncc(C(=O)NCc3ccnnc3)cc2CN1Cc1ccc(C(F)(F)F)cc1 [Compound 83] | 100 to 1000
10 | CNC(=O)[C@H]1CC[C@H](CNC(=O)c2cnc3c(c2)CN(Cc2ccc(C(F)(F)F)cc2)[C@H]3C(C)C)CC1 [Compound 108] | > 1000
11 | CC(C)[C@H]1c2ncc(C(=O)N[C@H](C)c3ccc(Br)cc3)cc2CN1Cc1ccc(C(F)(F)F)cc1 [Compound 119] | > 1000
12 | CC(C)[C@H]1c2ncc(C(=O)NCc3ccccn3)cc2CN1Cc1ccc(C(F)(F)F)cc1 [Compound 78] | 100 to 1000
13 | CC(C)[C@H]1c2ncc(C(=O)NCCc3ccnc(O)c3)cc2CN1Cc1ccc(C(F)(F)F)cc1 [Compound 101] | > 1000
14 | CC(C)[C@H]1c2ncc(C(=O)NCC(c3ccc(C(F)(F)F)cc3)N3CCOCC3)cc2CN1Cc1ccc(C(F)(F)F)cc1 (some centres unmarked) [Compound 93] | > 1000
15 | CC(C)[C@H]1c2ncc(C(=O)NC[C@@H]3CCN(C(=O)OC(C)(C)C)C[C@H]3O)cc2CN1Cc1ccc(C(F)(F)F)cc1 [Compound 156] | > 1000
16 | CC(C)[C@H]1c2ncc(C(=O)NC(Cc3cc(=O)[nH]c4ccccc34)C(=O)O)cc2CN1Cc1ccc(C(F)(F)F)cc1 (some centres unmarked) [Compound 136] | > 1000
17 | CC(C)[C@H]1c2ncc(C(=O)N[C@H]3c4ccccc4C[C@H]3O)cc2CN1Cc1ccc(C(F)(F)F)cc1 [Compound 131] | 100 to 1000
18 | CC(C)[C@H]1c2ncc(C(=O)NCCC3CN(C(=O)OC(C)(C)C)C3)cc2CN1Cc1ccc(C(F)(F)F)cc1 [Compound 66] | > 1000
19 | CC(C)[C@H]1c2ncc(C(=O)N[C@H]3c4ccccc4C[C@H]3O)cc2CN1Cc1ccc(C(F)(F)F)cc1 [Compound 132] | 100 to 1000
20 | CC(=O)O[C@@H]1CN(C(C)=O)CC[C@H]1CNC(=O)c1cnc2c(c1)CN(Cc1ccc(C(F)(F)F)cc1)[C@H]2C(C)C [Compound 157] | > 1000
21 | CC(C)[C@H]1c2ncc(C(=O)NC(CO)c3ccc(Br)cc3)cc2CN1Cc1ccc(C(F)(F)F)cc1 (some centres unmarked) [Compound 123] | 100 to 1000
22 | CC(C)[C@H]1c2ncc(C(=O)NCCc3ccccn3)cc2CN1Cc1ccc(C(F)(F)F)cc1 [Compound 97] | > 1000
23 | CCS(=O)(=O)CCNC(=O)c1cnc2c(c1)CN(Cc1ccc(C(F)(F)F)cc1)[C@H]2C(C)C [Compound 86] | > 1000
24 | CCS(=O)(=O)N1CCC(CNC(=O)c2cnc3c(c2)CN(Cc2ccc(C(F)(F)F)cc2)[C@H]3C(C)C)C1 (some centres unmarked) [Compound 106] | 100 to 1000
25 | CC(C)[C@H]1c2ncc(C(=O)NCc3cccc(S(C)(=O)=O)c3)cc2CN1Cc1ccc(C(F)(F)F)cc1 [Compound 116] | 100 to 1000
26 | CC(C)[C@H]1c2ncc(C(=O)N[C@@H](CCO)c3ccc(Cl)cc3)cc2CN1Cc1ccc(C(F)(F)F)cc1 [Compound 71] | 100 to 1000
